Source: US5736518A, “Peptide compounds of (L) amino acids and ring molecules, and therapeutical applications thereof” (Polifarma S.p.A., priority 1990, dated 1998)
Square brackets hold non-standard residues; d marks the D form. Peptide text beside a SMILES is read from it. * marks the point of attachment. Trp(1-Me) = Cn1cc(C[C@H](N)C(=O)O)c2ccccc21; Tic = O=C(O)[C@@H]1Cc2ccccc2CN1; pGlu = O=C1CC[CH](C(=O)O)N1; Hyp = O=C(O)[CH]1C[CH](O)CN1; Phg = N[CH](C(=O)O)c1ccccc1; ΔPro = O=C(O)[C@@H]1C=CCN1; Pip = O=C(O)[C@@H]1CCCCN1; αMeP = C[C]1(C(=O)O)CCCN1; Cbz = O=C(OCc1ccccc1)*; Aze = O=C(O)[CH]1CCN1; Boc = CC(C)(C)OC(=O)*

Experiments:
[1] = system: spontaneously hyper-tensive rats (SHR from the company Charles River); assay: pressure tests in spontaneously hypertensive rats, awake and free to move; assay type: in vivo
Description: (§1) In the following examples will first of all be given the data necessary for synthesis of the compounds according to the present invention. There will then be given data regarding their pharmacological activity, using methods widely known to be valid. In particular, for the pressure tests, spontaneously hyper-tensive rats were used (SHR from the company Charles River), operated in such a way as to enable pressure to be read even when the animals were awake and free to move. In order to evaluate the analgesic activity, the Hot Plate and Writhing Tests were used. For the anti-inflammatory effect the test of carraginine edema was used. Finally, for immuno-modulating activity the evaluation of the stimulation of growth of human lymphocytes in culture was resorted to, after the addition of specific antigens.

[2] = system: human lymphocytes in culture; assay: immuno-modulating activity: stimulation of growth of human lymphocytes in culture after addition of specific antigens; assay type: cell-based; conditions: human lymphocytes in culture; antigen not stated
Description: as §1, with “antigens. The results obtained for each synthesized compound are given at the end of each example.” for “antigens.”

[3] = analgesic activity, test not given (Hot Plate and Writhing Tests were used); assay type: in vivo; conditions: test and dose not stated
Description: as §1, with “antigens. The results obtained for each synthesized compound are given at the end of each example.” for “antigens.”

carraginine edema = assay: anti-inflammatory effect, test of carraginine edema; assay type: in vivo; conditions: edema from carrageenin; dose not stated
Description: as §1, with “antigens. The results obtained for each synthesized compound are given at the end of each example.” for “antigens.”

Row | Compound | anti-hypertensive effect (in words) ([1]; dose not stated) | immune response / immuno-stimulating activity (in words) [2] | anti-inflammatory effect (in words) (carraginine edema) | further results
1 | C[C@H](NC(=O)[C@@H]1CCCN1C(=O)OCc1ccccc1)C(=O)NCCc1c[nH]c2ccccc12 [compound 2, Z-(L)-Pro-(L)-Ala-TrpH] | comparable to that of compound 1 | increased, but to a lesser extent than in the previous compound | – | –
2 | C[C@H](NC(=O)[C@@H]1CCCN1C(=O)OCc1ccccc1)C(=O)N1CCc2c([nH]c3ccccc23)C1 [compound 3, Z-(L)-Pro-(L)-Ala-CytH] | – | – | – | anti-hypertensive effect (in words) ([1]; 8 mg/Kg i.p.): bland anti-hypertensive effect
3 | COC(=O)[C@H](Cc1ccc(OC)cc1)NC(=O)[C@H](C)NC(=O)[C@@H]1CCCN1C(=O)OCc1ccccc1 [compound 4, Z-(L)-Pro-(L)-Ala-(L)-OmtOMe] (Cbz-Pro-Ala-Tyr(Me)-OMe) | – | slightly increased | – | anti-hypertensive effect (in words) ([1]; 8 mg/Kg i.v.): bland anti-hypertensive effect
4 | COC[C@H](Cc1ccccc1)NC(=O)[C@H](C)NC(=O)[C@@H]1CCCN1C(=O)OCc1ccccc1 [compound 6, Z-(L)-Pro-(L)-Ala-(L)-Pme] | – | more consistent | rather weak | anti-hypertensive effect (in words) ([1]; 2 mg/Kg i.v.): good anti-hypertensive activity; reduction of pressure after one hour ([1]; 2 mg/Kg i.v., after one hour): approximately 25%; analgesic effect (in words) [3]: good analgesic activity
5 | COC(=O)[C@H](Cc1cn(C)c2ccccc12)NC(=O)[C@H](C)NC(=O)[C@@H]1CCCN1C(=O)OCc1ccccc1 [compound 7, Z-(L)-Pro-(L)-Ala-(1)-Me-(L)-TrpOMe] (Cbz-Pro-Ala-[Trp(1-Me)]-OMe) | – | – | – | anti-hypertensive effect (in words) ([1]; 2 mg/Kg i.v.): good anti-hypertensive effect; reduction of pressure ([1]; 2 mg/Kg i.v.): 10%
6 | COC(=O)[C@H](Cc1c[nH]c2ccccc12)NC(=O)[C@H](CC(C)C)NC(=O)c1ccco1 [compound 8, 2-Fur-(L)-Leu-(L)-TrpOMe] | – | strongly stimulated even with small doses of peptide | slight antiinflammatory effect | anti-hypertensive effect (in words) ([1]; 4 mg/Kg i.v.): slight anti-hypertensive effect
7 | COC(=O)[C@H](Cc1c[nH]c2ccccc12)NC(=O)[C@H](CC(C)C)NC(=O)c1ccc[nH]1 [compound 9, 2-Pyrrolyl-(L)-Leu-(L)-TrpOMe] | slight effect on pressure | – | bland reduction of inflammatory responses | –
8 | COC(=O)C(Cc1c[nH]c2ccccc12)NC(=O)C(CC(C)C)NC(=O)C1CCCN1C.Cl (centres unmarked) [compound 10, N-Me-(L)-Pro-(L)-Leu-(L)-TrpOMe.HCl] | – | slightly increased | – | anti-hypertensive effect (in words) ([1]; 2 mg/Kg i.v.): excellent anti-hypertensive effect; reduction of pressure ([1]; 2 mg/Kg i.v.): 15-20%; analgesic effect (in words) [3]: low analgesic effect
9 | COC(=O)[C@@H]1Cc2ccccc2CN1C(=O)[C@H](C)NC(=O)[C@@H]1CCCN1C(=O)OCc1ccccc1 [compound 11, Z-(L)-Pro-(L)-Ala(L)-CypOMe] (Cbz-Pro-Ala-[Tic]-OMe) | slight anti-hypertensive effect | – | moderate anti-inflammatory effect | –
10 | COC(=O)C(Cc1c[nH]c2ccccc12)NC(=O)C(CC(C)C)NC(=O)C1(C)CCCN1C(=O)OC(C)(C)C (stereo not drawn) [compound 12, Boc-(L)-Mep-(L)-Leu-(L)-TrpOMe] (Boc-[αMeP]-Leu-Trp-OMe; configuration not given here) | bland anti-hypertensive effect | – | reduction of the inflammatory response | –
11 | COC(=O)[C@H](Cc1c[nH]c2ccccc12)NC(=O)[C@H](CC(C)C)NC(=O)[C@@H]1C=CCN1C(=O)OC(C)(C)C [compound 13, Boc-.gradient.^3,4 -(L)-Pro-(L)-Leu-(L)-TrpOMe] (Boc-[ΔPro]-Leu-Trp-OMe) | slightly anti-hypertensive | slightly increases the immune response | – | –
12 | COC(=O)[C@H](Cc1c[nH]c2ccccc12)NC(=O)[C@H](CC(C)C)NC(=O)[C@@H]1Cc2ccccc2N1C(=O)OCc1ccccc1 [compound 14, Z-(S)-Dhi-(L)-Leu-(L)-TrpOMe] | bland reduction of pressure | – | – | analgesic effect (in words) [3]: moderate analgesic effect
13 | COC(=O)[C@H](Cc1c[nH]c2ccccc12)NC(=O)[C@H](CC(C)C)NC(=O)[C@@H]1CCCCN1C(=O)OCc1ccccc1 [compound 15, Z-(L)-Pip-(L)-Leu-(L)-TrPOMe] (Cbz-[Pip]-Leu-Trp-OMe) | – | slight increase in immune response | consistent | anti-hypertensive effect (in words) ([1]; 2 mg/Kg i.v.): good anti-hypertensive effect; reduction of pressure ([1]; 2 mg/Kg i.v.): up to 30%
14 | COC(=O)C(Cc1c[nH]c2ccccc12)NC(=O)C(CC(C)C)NC(=O)C1CC(O)CN1C(=O)OCc1ccccc1 (stereo not drawn) [compound 16, Z-(L)-Hyp-(L)-Leu-(L)-TrpOMe] (Cbz-[Hyp]-Leu-Trp-OMe; configuration not given here) | bland anti-hypertensive action | – | – | analgesic effect (in words) [3]: modest analgesic effect
15 | COC(=O)C(Cc1c[nH]c2ccccc12)NC(=O)C(CC(C)C)NC(=O)C1CCN1C(=O)OCc1ccccc1 [compound 17, Z-(S)-Aze-(L)-Leu-(L)-TrpOMe] (Cbz-[Aze]-Leu-Trp-OMe; configuration not given here) | slight anti-hypertensive effect | – | bland anti-inflammatory activity | –
16 | COC(=O)[C@H](Cc1c[nH]c2ccccc12)NC(=O)[C@H](CC(C)C)NC(=O)[C@@H]1CCCO1 [compound 18, (S)-Tfc-(L)-Leu-(L)-TrpOMe] | bland anti-hypertensive effect | stimulates the immune response in a moderate manner | – | –
17 | COC(=O)[C@H](Cc1c[nH]c2ccccc12)NC(=O)[C@H](CC(C)C)NC(=O)[C@@H]1CCC(=O)N1C(=O)OCc1ccccc1 [compound 19, Z-(L)-Pyr-(L)-Leu-(L)-TrpOMe] | slight anti-hypertensive effect | – | fair anti-inflammatory activity | –
18 | COC(=O)[C@@H]1Cc2c([nH]c3ccccc23)CN1C(=O)[C@H](CC(C)C)NC(=O)[C@@H]1CCC(=O)N1C(=O)OCc1ccccc1 [compound 20, Z-(L)-Pyr-(L)-Leu-(S)-CytOMe] | bland anti-hypertensive activity | – | fair anti-inflammatory activity | –
19 | COC(=O)[C@@H]1Cc2ccccc2CN1C(=O)[C@H](CC(C)C)NC(=O)[C@@H]1CCC(=O)N1C(=O)OCc1ccccc1 [compound 21, Z-(L)-Pyr-(L)-Leu-(S)-CyPOMe] | slight anti-hypertensive activity | good immuno-stimulating activity | – | –
20 | COC(=O)C(NC(=O)CNC(=O)C1CCC(=O)N1)c1ccccc1 (stereo not drawn) [compound 22, (L)-Pyr-Gly-(L)-PhgOMe] ([pGlu]-Gly-[Phg]-OMe; configuration not given here) | – | appears to increase the immune response | very good | anti-hypertensive effect (in words) ([1]; 4 mg/Kg i.p.): excellent anti-hypertensive activity; reduction of pressure values ([1]; 4 mg/Kg i.p.): 20%
21 | COC[C@H](Cc1ccccc1)NC(=O)CNC(=O)[C@@H]1CCC(=O)N1 [compound 23, (L)-Pyr-Gly-(L)-Pme] | – | good immuno-stimulating effect | – | anti-hypertensive effect (in words) ([1]; 8 mg/Kg i.p.): good anti-hypertensive activity; analgesic effect (in words) [3]: excellent analgesic effect
22 | COC(=O)[C@@H]1Cc2ccccc2CN1C(=O)CNC(=O)[C@@H]1CCC(=O)N1 [compound 24, (L)-Pyr-Gly-(L)-CypOMe] ([pGlu]-Gly-[Tic]-OMe) | bland anti-hypertensive action | – | moderate anti-inflammatory action | –
23 | COC(=O)[C@@H]1Cc2c([nH]c3ccccc23)CN1C(=O)[C@H](CC(C)C)NC(=O)[C@@H]1CCC(=O)N1 [compound 25, (L)-Pyr-(L)-Leu-(S)-CytOMe] | bland anti-hypertensive effect | – | – | analgesic effect (in words) [3]: weak analgesic activity
